Measured values from patent US11000033B2, “Ketone or oxime compound, and herbicide” (NISSAN CHEMICAL CORPORATION, priority 2014, dated 2021).

Tests used:
Type in all cases: in vivo
[1] = system: rice plant; experiment: Test Example 5: effect on crop by foliage application, plastic box (symbol b); conditions: 320 g/ha, 3 weeks after application
How it was run: (§1)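 Box culture: sterile diluvial soil, seeds spot-sown, ~1.5 cm cover, raised under glass at 25–30° C.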

[2] = system: rapeseed; experiment: Test Example 4: effect on crop by soil treatment (symbol g); conditions: for Effect on crop grade, g: rapeseed: application herbicide amount 320 g/ha
How it was run: (§2)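 Crop seed is sown in spots together with several weed species in a box of sterilized diluvial soil. It is covered by about 1.5 cm of soil and kept in a greenhouse held between 25° C. and 30° C.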

[3] = system: Apera spica-venti; experiment: Test Example 5: herbicidal effect by foliage application, plastic box (symbol L); conditions: 320 g/ha, 3 weeks after application
How it was run: (§3)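 Post-emergence spray; diluvial soil (sterilized), ~1.5 cm seed cover; greenhouse 25–30° C; 14-day-old plants; water-diluted emulsion at predetermined dose; visual score at 3 wk post-treatment.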

[4] = system: Cyperus difformis; experiment: Test Example 3: herbicidal effect by foliage application, Wagner pot (symbol E); conditions: application herbicide amount 320 g/ha; for E herbicidal effect grade: Table 24
How it was run: (§4)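 Post-emergence, paddy-type test: seedlings 14 d old in shallow-flooded (0.1–0.5 cm) alluvial soil, 25–30 °C greenhouse. Emulsion diluted to target rate, sprayed on leaves. Read-out: visual effect on each species at 3 weeks, per set criteria.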

[5] = system: Amaranthus retroflexus; experiment: Test Example 4: herbicidal effect by soil treatment (symbol N); conditions: for Herbicidal effect grade, N: Amaranthus retroflexus: application herbicide amount 320 g/ha
How it was run: (§5)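 Seeds were sown in sterilized diluvial soil, covered with about 1.5 cm of soil, and the soil surface was sprayed with a water-diluted emulsion of the compound at a predetermined rate. Plants grew in a greenhouse at 25° C. to 30° C.; effects were scored visually 3 weeks after application.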

[6] = system: Avena fatua; experiment: Test Example 5: herbicidal effect by foliage application, plastic box (symbol I); conditions: 320 g/ha, 3 weeks after application
How it was run: as §3

[7] = system: rice; experiment: Test Example 4: effect on crop by soil treatment (symbol b); conditions: for Effect on crop grade, b: directly sowed rice plant: application herbicide amount 320 g/ha
How it was run: as §2

[8] = system: Chenopodium album; experiment: Test Example 5: herbicidal effect by foliage application, plastic box (symbol O); conditions: 320 g/ha, 3 weeks after application
How it was run: as §3

[9] = system: wheat; experiment: Test Example 4: effect on crop by soil treatment (symbol e); conditions: for Effect on crop grade, e: wheat: application herbicide amount 320 g/ha
How it was run: as §2

[10] = system: Lolium multiflorum Lam.; experiment: Test Example 4: herbicidal effect by soil treatment (symbol K); conditions: for Herbicidal effect grade, K: Lolium multiflorum Lam.: application herbicide amount 320 g/ha
How it was run: as §5

[11] = system: Stellaria media; experiment: Test Example 5: herbicidal effect by foliage application, plastic box (symbol P); conditions: 320 g/ha, 3 weeks after application
How it was run: as §3

[12] = system: beet; experiment: Test Example 4: effect on crop by soil treatment (symbol f); conditions: for Effect on crop grade, f: beet: application herbicide amount 320 g/ha
How it was run: as §2

[13] = system: wheat; experiment: Test Example 5: effect on crop by foliage application, plastic box (symbol e); conditions: 320 g/ha, 3 weeks after application
How it was run: as §1

[14] = system: Leptochloa chinensis; experiment: Test Example 3: herbicidal effect by foliage application, Wagner pot (symbol D); conditions: application herbicide amount 320 g/ha; for D (Leptochloa chinensis) herbicidal effect grade: Table 24
How it was run: as §4

[15] = system: Monochoria vaginalis; experiment: Test Example 1: herbicidal activity, application before weed generation in submerged conditions (symbol C); conditions: application herbicide amount 320 g/ha
How it was run: (§6)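 Mixed weed seeds sown in alluvial soil under 4 cm of water, with rice seedlings at the 2.5-leaf stage added. Same-day treatment: emulsion diluted to a set herbicide amount onto the water. Three weeks at 25–30 °C, then graded on a six-step scale.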

[16] = system: Abutilon theophrasti; experiment: Test Example 5: herbicidal effect by foliage application, plastic box (symbol M); conditions: 320 g/ha, 3 weeks after application
How it was run: as §3

[17] = system: Echinochloa oryzacola Vasing.; experiment: Test Example 1: herbicidal activity, application before weed generation in submerged conditions (symbol A); conditions: application herbicide amount 320 g/ha
How it was run: as §6

| SMILES | b: directly sowed rice plant, effect on crop grade [1] | Effect on crop grade, g: rapeseed [2] | L: Apera spica-venti, herbicidal effect grade [3] | E herbicidal effect grade [4] | Herbicidal effect grade, N: Amaranthus retroflexus [5] | I: Avena fatua, herbicidal effect grade [6] | Effect on crop grade, b: directly sowed rice plant [7] | O: Chenopodium album, herbicidal effect grade [8] | Effect on crop grade, e: wheat [9] | Herbicidal effect grade, K: Lolium multiflorum Lam. [10] | P: Stellaria media, herbicidal effect grade [11] | Effect on crop grade, f: beet [12] | e: wheat, effect on crop grade [13] | D (Leptochloa chinensis) herbicidal effect grade [14] | C (Monochoria vaginalis) herbicidal effect grade [15] | M: Abutilon theophrasti, herbicidal effect grade [16] | A (Echinochloa oryzacola Vasing.) herbicidal effect grade [17] | further results |
| --- | --- | --- | --- | --- | --- | --- | --- | --- | --- | --- | --- | --- | --- | --- | --- | --- | --- | --- |
| CC#Cc1cc(C)c(C2=C(OC(=O)COc3ccccc3)CC(CC(C)=NOCC(F)(F)F)C2=O)c(C)c1 (centres unmarked) [9-013] | 5 (Herbicidal ratio of 90% or more (almost completely withered)) | 4 (Herbicidal ratio of 70% or higher and lower than 90%) | 5 (Herbicidal ratio of 90% or more (almost completely withered)) | 5 (Herbicidal ratio of 90% or more (almost completely withered)) | 1 (Herbicidal ratio of 5% or higher and lower than 20%) | 5 (Herbicidal ratio of 90% or more (almost completely withered)) | 5 (Herbicidal ratio of 90% or more (almost completely withered)) | 3 (Herbicidal ratio of 40% or higher and lower than 70%) | 4 (Herbicidal ratio of 70% or higher and lower than 90%) | 5 (Herbicidal ratio of 90% or more (almost completely withered)) | 2 (Herbicidal ratio of 20% or higher and lower than 40%) | 5 (Herbicidal ratio of 90% or more (almost completely withered)) | 4 (Herbicidal ratio of 70% or higher and lower than 90%) | 5 (Herbicidal ratio of 90% or more (almost completely withered)) | 1 (Herbicidal ratio of 5% or higher and lower than 20%) | 4 (Herbicidal ratio of 70% or higher and lower than 90%) | 5 (Herbicidal ratio of 90% or more (almost completely withered)) |  |
| COCCON=C(C)CC1CC(O)=C(c2c(C)cc(Br)cc2C)C1=O (centres unmarked) [9-017] | 5 (Herbicidal ratio of 90% or more (almost completely withered)) | 0 (Herbicidal ratio of 5% or lower (almost no effect)) | 3 (Herbicidal ratio of 40% or higher and lower than 70%) | 3 (Herbicidal ratio of 40% or higher and lower than 70%) | 0 (Herbicidal ratio of 5% or lower (almost no effect)) | 4 (Herbicidal ratio of 70% or higher and lower than 90%) | 1 (Herbicidal ratio of 5% or higher and lower than 20%) | 0 (Herbicidal ratio of 5% or lower (almost no effect)) | 0 (Herbicidal ratio of 5% or lower (almost no effect)) | 0 (Herbicidal ratio of 5% or lower (almost no effect)) | 0 (Herbicidal ratio of 5% or lower (almost no effect)) | 0 (Herbicidal ratio of 5% or lower (almost no effect)) | 3 (Herbicidal ratio of 40% or higher and lower than 70%) | 5 (Herbicidal ratio of 90% or more (almost completely withered)) | 0 (Herbicidal ratio of 5% or lower (almost no effect)) | 0 (Herbicidal ratio of 5% or lower (almost no effect)) | 4 (Herbicidal ratio of 70% or higher and lower than 90%) |  |
| COCCON=C(CC1CC(O)=C(c2c(C)cc(Br)cc2C)C1=O)C1CC1 (centres unmarked) [9-019] | 3 (Herbicidal ratio of 40% or higher and lower than 70%) | 0 (Herbicidal ratio of 5% or lower (almost no effect)) | 1 (Herbicidal ratio of 5% or higher and lower than 20%) | 4 (Herbicidal ratio of 70% or higher and lower than 90%) | 0 (Herbicidal ratio of 5% or lower (almost no effect)) | 4 (Herbicidal ratio of 70% or higher and lower than 90%) | 5 (Herbicidal ratio of 90% or more (almost completely withered)) | 0 (Herbicidal ratio of 5% or lower (almost no effect)) | 0 (Herbicidal ratio of 5% or lower (almost no effect)) | 3 (Herbicidal ratio of 40% or higher and lower than 70%) | 0 (Herbicidal ratio of 5% or lower (almost no effect)) | 0 (Herbicidal ratio of 5% or lower (almost no effect)) | 0 (Herbicidal ratio of 5% or lower (almost no effect)) | 5 (Herbicidal ratio of 90% or more (almost completely withered)) | 0 (Herbicidal ratio of 5% or lower (almost no effect)) | 0 (Herbicidal ratio of 5% or lower (almost no effect)) | 4 (Herbicidal ratio of 70% or higher and lower than 90%) |  |
| CCCCCCCCS(=O)(=O)OC1=C(c2c(C)cc(C)cc2C)C(=O)C(CC(C)=NOC)C1 (centres unmarked) [1-107] |  |  |  |  |  |  |  |  |  |  |  |  |  |  |  |  |  | b: directly sowed rice plant, effect on crop (criteria 0-5) [1]: 5 (Herbicidal ratio of 90% or more (almost completely withered)); g: rapeseed, effect grade on crop ([2]; 320 g/ha): 2 (Herbicidal ratio of 20% or higher and lower than 40%); L: Apera spica-venti, herbicidal effect (criteria 0-5) [3]: 5 (Herbicidal ratio of 90% or more (almost completely withered)); herbicidal effect on E, grade 0-5 [4]: 5 (Herbicidal ratio of 90% or more (almost completely withered)); N: Amaranthus retroflexus, herbicidal effect grade ([5]; 320 g/ha): 0 (Herbicidal ratio of 5% or lower (almost no effect)); I: Avena fatua, herbicidal effect (criteria 0-5) [6]: 5 (Herbicidal ratio of 90% or more (almost completely withered)); b: directly sowed rice plant, effect grade on crop ([7]; 320 g/ha): 5 (Herbicidal ratio of 90% or more (almost completely withered)); O: Chenopodium album, herbicidal effect (criteria 0-5) [8]: 0 (Herbicidal ratio of 5% or lower (almost no effect)); e: wheat, effect grade on crop ([9]; 320 g/ha): 0 (Herbicidal ratio of 5% or lower (almost no effect)); K: Lolium multiflorum Lam., herbicidal effect grade ([10]; 320 g/ha): 5 (Herbicidal ratio of 90% or more (almost completely withered)); P: Stellaria media, herbicidal effect (criteria 0-5) [11]: 0 (Herbicidal ratio of 5% or lower (almost no effect)); f: beet, effect grade on crop ([12]; 320 g/ha): 0 (Herbicidal ratio of 5% or lower (almost no effect)); e: wheat, effect on crop (criteria 0-5) [13]: 2 (Herbicidal ratio of 20% or higher and lower than 40%); herbicidal effect on D (Leptochloa chinensis), grade 0-5 [14]: 5 (Herbicidal ratio of 90% or more (almost completely withered)); Herbicidal effect grade, C: Monochoria vaginalis [15]: 1 (Herbicidal ratio of 5% or higher and lower than 20%); M: Abutilon theophrasti, herbicidal effect (criteria 0-5) [16]: 1 (Herbicidal ratio of 5% or higher and lower than 20%); Herbicidal effect grade, A: Echinochloa oryzacola Vasing. [17]: 5 (Herbicidal ratio of 90% or more (almost completely withered)) |
